Results taken from patent publication US20110237686A1, “FORMULATIONS AND METHODS OF USE” (Cerulean Pharma Inc, priority 2010, published 2011).

Key:
[1] = Simple lyophilization of PLGA7K-PVA-PEG2K-30 and PLGA7K-PVA-PEG5K-30 PEGylated nanoparticle formulations; format: physicochemical; settings: 2K PEG PLGA nanoparticles 20 mg/mL, cryoprotectant 20 mg/mL (1:1 w/w)
Description: The results are similar to that obtained for PEGylated nanoparticles A except for SB-β-CD. The result from SB-β-CD supported the H-bonding mechanism for cryoprotection of PEGylated PLGA nanoparticles since SB-β-CD has less hydroxyl groups than α-CD, γ-CD and HP-β-CD (about ⅓ of —OH groups of β-CD are substituted by sulfobutyl groups).

[2] = Lyophilization using HP-β-CD, freezing with liquid nitrogen and vacuum at room temperature; format: physicochemical; settings: PEGylated nanoparticles A, polymer 31.25 mg/mL, vacuum at room temperature;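 further: cyclodextrins or their derivatives tested as cryoprotectant during lyophilization of PEGylated nanoparticles, assessing particle size growth attributed to PEG crystallization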
Protocol: In this example, a new strategy of using cyclodextrins and their derivatives as a cryoprotectant was tested. […] A cryoprotectant is needed to lyophilize liquid formulation that contain PEGylated nanoparticles A (Entries #1 and #2).

[3] = Lyophilization using other cyclodextrins; format: physicochemical; settings: post lyophilization
Protocol: Other CDs were also evaluated at the similar weight ratio of cryoprotectant/nanoparticle.

[4] = Cryoprotectant screen, sucrose lyophilization cycle; format: physicochemical; settings: PEGylated nanoparticles A; for Dv90 / PDI / Zave: reconstituted
Protocol: A cryoprotectant screen was performed as follows.
These conditions are shown below in Table 21.

B16.F10 cells = test: CellTiter-Glo Luminescent Cell Viability Assay (cytotoxicity of nanoparticles); format: cell-based, mouse; settings: for IC50: Mus musculus, B16.F10 cells, 24, 48 and 72 hours of incubation tested, time of the IC50 not stated
Protocol: The Cytotoxicity of nanoparticles formed from polymer drug conjugates was evaluated using the following protocol. […] B16.F10 cells, grown to 85-90% confluency in 150 cm^2 flasks (passage<30), were resuspended in media (MEM-alpha, 10% HI-FBS, 1× antibiotic-antimycotic) and added to 96-well opaque-clear bottom plates at a concentration of 1500 cells/well in 200 μL/well. The cells were incubated at 37° C. with 5% CO2 for 24 hours. The following day, serial dilutions of 2×concentrated particles and 2× concentrated free drug were made in 12-well reservoirs with media to specified concentrations. The media in the plates was replaced with 100 μL of fresh media and 100 μL of the corresponding serially diluted drug. Three sets of plates were prepared with duplicate treatments. Following 24, 48 and 72 hours of incubation at 37° C. with 5% CO2, the media in the plates was replaced with 100 μL of fresh media and […] of CTG solution, and then incubated for 5 minutes on a plate shaker at room temperature set to 450 rpm and allowed to rest for 15 minutes. Viable cells were measured by luminescence using a microtiter plate reader. The data was plotted as % viability vs. concentration and standardized to untreated cells.

[5] = Lyophilization of stealth liposome (Doxil); format: physicochemical; settings: lipids 16 mg/mL, Sucrose lyophilization cycle, post lyophilization
[6] = cryoprotectant 15 mg/mL (0.48:1 w/w)
[7] = PEGylated nanoparticles A, polymer 31.25 mg/mL, CD 40 mg/mL (1.28:1 w/w)
[8] = SB-β-CD 40 mg/mL, polymer 28.87 mg/mL (Doce. 1.94), 1.39:1 w/w
[9] = SB-β-CD 60 mg/mL, polymer 28.87 mg/mL (Doce. 1.94), 2.08:1 w/w
[10] = polymer 10.42 mg/mL (Doce. 0.50), cryoprotectant 100 mg/mL (9.6:1 w/w)
[11] = polymer 20.83 mg/mL (Doce. 1.00), cryoprotectant 100 mg/mL (4.8:1 w/w)
[12] = polymer 26.05 mg/mL (Doce. 1.25), cryoprotectant 100 mg/mL (3.8:1 w/w)
[13] = polymer 31.25 mg/mL (Doce. 1.5), cryoprotectant 100 mg/mL (3.2:1 w/w)
[14] = polymer 31.25 mg/mL, cryoprotectant 20 mg/mL (0.64:1 w/w)
[15] = polymer 31.25 mg/mL, cryoprotectant 60 mg/mL (1.92:1 w/w)
[16] = polymer 31.25 mg/mL, cryoprotectant 200 mg/mL (6.4:1 w/w)
[17] = polymer 31.25 mg/mL, cryoprotectant 300 mg/mL (9.6:1 w/w)
[18] = cryoprotectant 40 mg/mL (1.28:1 w/w)
[19] = cryoprotectant 100 mg/mL (6.25:1 w/w lipid)
[20] = cryoprotectant 150 mg/mL (12.5:1 w/w lipid)
[21] = cryoprotectant 200 mg/mL (18.5:1 w/w lipid)

Work on `OC[C@H]1O[C@@H]2O[C@H]3[C@H](O)[C@@H](O)[C@@H](O[C@H]4[C@H](O)[C@@H](O)[C@@H](O[C@H]5[C@H](O)[C@@H](O)[C@@H](O[C@H]6[C@H](O)[C@@H](O)[C@@H](O[C@H]7[C@H](O)[C@@H](O)[C@@H](O[C@H]1[C@H](O)[C@H]2O)O[C@@H]7CO)O[C@@H]6CO)O[C@@H]5CO)O[C@@H]4CO)O[C@@H]3CO` [α-CD, α-cyclodextrin] yielded a Dv90 [1] of 139 nm, a PDI [1] of 0.087 and a Zave [1] of 101.0 nm. The Dv90 [2, 6] was 122 nm, the “Filtration Loss” value [2, 6] was 8% and the PDI [2, 6] was 0.088. For the same compound, the “Reconstituted Solution appearance” value [2, 6] was “good”, the Zave [2, 6] was 92.05 nm and the Dv90 [3, 7] was 121 nm. The PDI [3, 7] was 0.070 and the Zave [3, 7] was 92.06 nm.

In the case of “β-cyclodextrin sulfobutylether [SB-β-CD]”, the “outcome after lyophilization (in place of particle size)” value (“outcome after lyophilization” for short) [1] is reported as “Precipitated”, the Dv90 [3, 8] is reported as 149 nm and the “Filtration Potency Loss” value [3, 8] is reported as 2%. The Zave [3, 8] was 106.9 nm, the Dv90 [3, 9] was 151 nm and the “Filtration Potency Loss” value [3, 9] was 8%. It also gave a Zave [3, 9] of 108.5 nm.

In the case of `OC[C@H]1O[C@H](O[C@H]2O[C@H](CO)[C@@H](O)[C@H](O)[C@H]2O)[C@H](O)[C@@H](O)[C@@H]1O` [Trehalose, trehalose], the “outcome after lyophilization” value [1] is reported as “Precipitated”, the “Lyophilized preparation Appearance” value [4, 10] is reported as “good” and the “Recon. Solution Appearance” value [4, 10] is reported as “slight”. It also gave a Dv90 [4, 10] of 160 nm, a PDI [4, 10] of 0.0166 and a Zave [4, 10] of 108.1 nm. The “Lyophilized preparation Appearance” value [4, 11] was “good”, the “Recon. Solution Appearance” value [4, 11] was “cloudy” and the Dv90 [4, 11] was 189 nm. For the same compound, the PDI [4, 11] was 0.725, the Zave [4, 11] was 606.5 nm and the “Lyophilized preparation Appearance” value [4, 12] was “good”. For the same compound, the “Recon. Solution Appearance” value [4, 12] was “cloudy”, the Dv90 [4, 12] was 379 nm and the PDI [4, 12] was 0.372. The Zave [4, 12] was 259.1 nm, the “Lyophilized preparation Appearance” value [4, 13] was “good” and the “Recon. Solution Appearance” value [4, 13] was “cloudy”. For the same compound, the Dv90 [4, 13] was 286 nm, the PDI [4, 13] was 0.417 and the Zave [4, 13] was 294.2 nm. For the same compound, the “Lyophilized preparation Appearance” value [4, 14] was “good”, the “Recon. Solution Appearance” value [4, 14] was “precipitation” and the Dv90 [4, 14] was 188 nm. The PDI [4, 14] was 0.381, the Zave [4, 14] was 236.1 nm and the “Lyophilized preparation Appearance” value [4, 15] was “good”. For the same compound, the “Recon. Solution Appearance” value [4, 15] was “cloudy”, the Dv90 [4, 15] was 169 nm and the PDI [4, 15] was 0.464. For the same compound, the Zave [4, 15] was 276.9 nm, the “Lyophilized preparation Appearance” value [4, 16] was “good” and the “Recon. Solution Appearance” value [4, 16] was “slight”. It also gave a Dv90 [4, 16] of 186 nm, a PDI [4, 16] of 0.348 and a Zave [4, 16] of 192.2 nm. For the same compound, the “Lyophilized preparation Appearance” value [4, 17] was “good”, the “Recon. Solution Appearance” value [4, 17] was “slight” and the Dv90 [4, 17] was 205 nm. It also gave a PDI [4, 17] of 0.325, a Zave [4, 17] of 154.8 nm and a Dv90 [2, 18] of 130 nm. For the same compound, the PDI [2, 18] was 0.260, the “Reconstituted Solution appearance” value [2, 18] was “precipitation” and the Zave [2, 18] was 114.1 nm.

With `OC[C@H]1O[C@@H]2O[C@H]3[C@H](O)[C@@H](O)[C@@H](O[C@H]4[C@H](O)[C@@H](O)[C@@H](O[C@H]5[C@H](O)[C@@H](O)[C@@H](O[C@H]6[C@H](O)[C@@H](O)[C@@H](O[C@H]7[C@H](O)[C@@H](O)[C@@H](O[C@H]8[C@H](O)[C@@H](O)[C@@H](O[C@H]9[C@H](O)[C@@H](O)[C@@H](O[C@H]1[C@H](O)[C@H]2O)O[C@@H]9CO)O[C@@H]8CO)O[C@@H]7CO)O[C@@H]6CO)O[C@@H]5CO)O[C@@H]4CO)O[C@@H]3CO` [γ-CD, γ-cyclodextrin] the Dv90 [1] was 139 nm, the PDI [1] was 0.080 and the Zave [1] was 101.8 nm. For the same compound, the Dv90 [3, 7] was 121 nm, the PDI [3, 7] was 0.097 and the Zave [3, 7] was 91.06 nm.

With doxorubicin 5050 PLGA amide the “growth of B16.F10 cells” value (B16.F10 cells; 24, 48 and 72 hours of incubation) was “inhibited the growth of B16.F10 cells in a dose and time dependent manner”.

In the case of `OC[C@H]1O[C@@](CO)(O[C@H]2O[C@H](CO)[C@@H](O)[C@H](O)[C@H]2O)[C@@H](O)[C@@H]1O` [Sucrose, sucrose], the “outcome after lyophilization” value [1] is reported as “Precipitated”, the “Filtration Loss (0.2 μm PES Filter)” value [4, 10] is reported as 2% and the “Lyophilized preparation Appearance” value [4, 10] is reported as “good”. For the same compound, the “Recon. Solution Appearance” value [4, 10] was “good”, the Dv90 [4, 10] was 120 nm and the PDI [4, 10] was 0.081. For the same compound, the Zave [4, 10] was 90.62 nm, the “Filtration Loss (0.2 μm PES Filter)” value [4, 11] was 2% and the “Lyophilized preparation Appearance” value [4, 11] was “good”. For the same compound, the “Recon. Solution Appearance” value [4, 11] was “good”, the Dv90 [4, 11] was 120 nm and the PDI [4, 11] was 0.081. The Zave [4, 11] was 91.37 nm, the “Filtration Loss (0.2 μm PES Filter)” value [4, 12] was 10% and the “Lyophilized preparation Appearance” value [4, 12] was “good”. The “Recon. Solution Appearance” value [4, 12] was “good”, the PDI [4, 12] was 0.110 and the Zave [4, 12] was 92.79 nm. For the same compound, the “Lyophilized preparation Appearance” value [4, 13] was “good”, the “Recon. Solution Appearance” value [4, 13] was “slight” and the “Filtration Loss (0.2 μm PES Filter)” value ([4]; polymer 31.25 mg/mL (Doce. 1.50), cryoprotectant 100 mg/mL (3.2:1 w/w)) was 15%. For the same compound, the PDI [4, 13] was 0.125, the Zave [4, 13] was 94.72 nm and the Dv90 [2, 18] was 155 nm. For the same compound, the PDI [2, 18] was 0.207, the “Reconstituted Solution appearance” value [2, 18] was “precipitation” and the Zave [2, 18] was 197.2 nm. It also gave a Dv90 [5, 19] of 58.5 nm, a PDI [5, 19] of 0.390 and a Zave [5, 19] of 142.4 nm. For the same compound, the Dv90 [5, 20] was 533 nm, the PDI [5, 20] was 0.484 and the Zave [5, 20] was 219.3 nm. The Dv90 [5, 21] was 1640 nm, the PDI [5, 21] was 0.506 and the Zave [5, 21] was 200.2 nm.

Work on `COc1cccc2c1C(=O)c1c(O)c3c(c(O)c1C2=O)C[C@@](O)(C(=O)CO)C[C@@H]3O[C@H]1C[C@H](N)[C@H](O)[C@H](C)O1` [Free doxorubicin, doxorubicin] yielded an IC50 (B16.F10 cells) of 14 µM.

Compound `CC(=O)O[C@H]1C(=O)[C@@]2(C)[C@H]([C@H](OC(=O)c3ccccc3)[C@]3(O)C[C@H](OC(=O)[C@H](O)[C@@H](NC(=O)c4ccccc4)c4ccccc4)C(C)=C1C3(C)C)[C@]1(OC(C)=O)CO[C@@H]1C[C@@H]2O` [Free paclitaxel, paclitaxel] has an IC50 (B16.F10 cells) of 7 µM.
